Columns and labels:
[1] = system: mean arterial blood pressure and heart rate in the conscious rat; assay: Antihypertensive evaluation (AHP3): aortic blood pressure and heart rate from conscious rats; type: in vivo
Excerpt: ANTIHYPERTENSIVE EVALUATION (AHP3)
This test procedure is described in the following paragraphs.
A Method for the Direct Monitoring of Aortic Blood Pressure and Heart Rate from Conscious Rats
The continous monitoring of pulsatile blood pressure (BP) from unrestrained conscious rats surgically equipped with polyethylene cannulas was accomplished by means of a computer assisted data capture scheme (CADCS). The basic elements of the methodology are the cannulation procedure and the CADCS.
Rats were anesthetized with Telazol (1:1 tiletamine HCl and zolazepam HCl); 20-40 mg/kg IM and the descending aorta exposed via a midline incision. Cannulas fabricated from polyethylene tubing were inserted into the aorta via an undersized puncture hole below the renal arteries. The puncture hole was made by a 23 G disposable needle with a section of the aorta clamped off above and below the puncture site. The cannulas, consisting of a PE100 (0.86 mm ID) body and a PE50 (0.58 mm ID) tip, were attached to a trocar, inserted through the psoas muscle, and passed subcutaneously along the midline of the back and externalized between the ears. The cannulas were anchored to the psoas muscle and between the scalulae (3-0 green braided suture). The midline incision was closed in two steps (muscle first, skin second) using contiuous over-and over sutures (4-0 chronic). Each rat was then given penicillin 30,000 units subcutaneously (Penicilling G Procaine Sterile Suspension).
The rats were fitted with a harness-spring-swivel assembly designed to protect the cannula and to provide the rat relative freedom of movement. The harnesses were fabricated from nylon hook and loop tape cemented to a metal plate to which spring wires (18-8 stainless steel) were attached to brass swivels. Each polyethylene cannula was channeled through a spring and connected through a swivel to a pressure transducer (Model P23Gb; Statham Instruments; Hato Rey, Puerto Rico) and an infusion pump (Sage model 234-7; Orion Research, Cambridge, MA) by means of PE100 tubing. While on test, each rat received a continuous slow infusion of heparinized saline solution (approximately […] or 40 units of heparin per 24 hours period) to prevent clot formation. Additional "flushes" of the cannula with heparinized saline were carried out when the aortic pluse pressure (systolic minus diastolic) was less than 25 mm Hg.
The pulsatile blood pressure and heart rate of each of 32 rats was monitored every minute by means of two in-laboratory microcomputers communicating directly with a data concentrator computer. The data were first stored on the data concentrator disk and then transferred to a magnetic tape for analysis and report generation by the main research computer. […]

[2] = system: mice falling off the inverted screen; assay: Mouse Activity and Screen Test Procedure (MAST): screen test; type: in vivo, Swiss-Webster male mice
Excerpt: The compounds of the invention are new chemical substances which are useful as pharmaceutical agents for the treatment of psychoses. The antipsychotic activity of representative compounds of the invention was established by the Mouse Activity and Screen Test Procedure (MAST) described below. Animals Nine unfasted Swiss-Webster male mice weighing 20-30 g are equally divided into three groups for each drug dose to be tested. That is, data for each dose level was generated by three separate groups of three mice each. Drugs A minimum of three dose levels (10, 30, and 100 mg/kg) are tested for each drug. Treatments are administered intraperitoneally one hour prior to testing. All dosages are calculated as parent compound and given in volumes of 10 ml/kg. Compounds are dissolved or suspended in 0.2% Methocel. Control animals are injected with Methocel. Testing: A two part testing procedure is started one hour postinjection. First, the screen test (ST) is performed (see Pharmac. Biochem. Behav. 6, 351-353, 1977). Briefly this test consists of placing mice on individual wire screens which are then rotated 180 degrees at the start of a 60 second observation period. The number of mice falling off the inverted screen is recorded. Data: The data obtained from the screen test are expressed as percent of mice falling off the screen. Data derived from locomotor activity of drug treated mice are compared to the activity of vehicle treated animals and are expressed as percent inhibition of spontaneous locomotion. All percentages reported for inhibition of locomotion (LI) are based upon data accumulated for one hour. Both phases of testing are graded: A=60-100%; C=31-59%; and N=0-30%. An overall dose rating is obtained by the following criteria: LAD refers to the lowest dose at which an A rating is achieved. […] Utilizing this procedure, an overall dose rating of A was obtained for the noted compound at the indicated dose. The compounds are identified in the Examples.

Compound | Screen test failure ([2]; 0.1 mg/kg IP) | Screen test failure ([2]; 0.3 mg/kg IP) | Screen test failure ([2]; 1 mg/kg IP) | Screen test failure ([2]; 3 mg/kg IP) | Screen test failure ([2]; 10 mg/kg IP) | Screen test failure ([2]; 30 mg/kg IP) | Screen test failure ([2]; 0.03 mg/kg IP) | Screen test failure ([2]; 0.01 mg/kg IP) | HR (heart rate) change ([1]; 1 mg/kg, hour 5, conscious rat) | MAP (mean arterial pressure) change ([1]; 1 mg/kg, hour 5, conscious rat) | MAP (mean arterial pressure) change ([1]; 10 mg/kg, hour 3, conscious rat) | MAP (mean arterial pressure) change ([1]; 10 mg/kg, hour 5, conscious rat)
CCNC(=O)[C@H]1O[C@@H](n2cnc3c(NCC(c4ccccc4)c4ccccc4)ncnc32)[C@H](O)[C@@H]1O [Example 3, N^6-(2,2-diphenylethyl)-adenosine-5'-ethylcarboxamide] | 0% | 0% | 0% | 0% | 11% | 33% |  |  | 0% | 0% |  | 
CCNC(=O)[C@H]1O[C@@H](n2cnc3c(NCc4cccc5ccccc45)ncnc32)[C@H](O)[C@@H]1O [Example 6, N-6-Naphthylmethyladenosine-5'-ethylcarboxamide] | 0% | 0% | 11% | 11% | 0% |  | 0% |  |  |  |  | 
CCOC(=O)[C@H]1O[C@@H](n2cnc3c(NC4CC5CCC4C5)ncnc32)[C@H](O)[C@@H]1O (relative stereo) [Example 8, N-6-Norbornyl-adenosine-5'ethylcarboxylate] |  |  |  |  |  |  |  |  |  |  | 0% | 

More lines, main results first:

Screen test failure ([2]; 0.1 mg/kg IP) | Screen test failure ([2]; 0.3 mg/kg IP) | Screen test failure ([2]; 1 mg/kg IP) | Screen test failure ([2]; 3 mg/kg IP) | Screen test failure ([2]; 10 mg/kg IP) | Screen test failure ([2]; 30 mg/kg IP) | Screen test failure ([2]; 0.03 mg/kg IP) | Screen test failure ([2]; 0.01 mg/kg IP) | Compound | HR (heart rate) change ([1]; 1 mg/kg, hour 5, conscious rat) | MAP (mean arterial pressure) change ([1]; 1 mg/kg, hour 5, conscious rat) | MAP (mean arterial pressure) change ([1]; 10 mg/kg, hour 3, conscious rat) | MAP (mean arterial pressure) change ([1]; 10 mg/kg, hour 5, conscious rat)
 |  |  | 11% | 0% | 0% |  |  | CCOC(=O)[C@H]1O[C@@H](n2cnc3c(NCC(c4ccccc4)c4ccccc4)ncnc32)[C@H](O)[C@@H]1O [Example 5, N6-(2,2-diphenylethyl)-5-adenosine-5'-ethylcarboxylate] |  |  |  | 0%
33% | 11% | 33% | 88% | 100% | 100% | 0% | 0% | CCNC(=O)[C@H]1O[C@@H](n2cnc3c(N[C@H](C)Cc4ccccc4)ncnc32)[C@H](O)[C@@H]1O [Example 1, (R)-N-6-[(2-phenyl-1-methyl)ethyl]-adenosine-5'-ethylcarboxamide] |  |  |  | 

Source: patent US4738954A, “Novel N^6 -substituted-5'-oxidized adenosine analogs” (Warner-Lambert Company, priority 1985, dated 1988)
